Experimental data reported in US9815851B2, “Pyrrolo carboxamides as modulators of orphan nuclear receptor RAR-related orphan receptor-gamma (RORγ, NR1F3) activity and for the treatment of chronic inflammatory and autoimmune diseases” (PHENEX PHARMACEUTICALS AG, priority 2011, dated 2017).
Like-named read-outs stand apart in the source and are kept apart here.

Legend:
[1] = molecular target: T1, RORγ ligand binding domain (LBD) (Homo sapiens, UniProt P51449); experiment: TR-FRET Activity Assay (ligand sensing, RORγ-LBD / coactivator peptide interaction, LANCE); type: biochemical
T1 construct: made in house; host or cells: E. coli BL-21 (BL3), vector pDEST15
T1 sequence (P51449 269-508 limits assumed): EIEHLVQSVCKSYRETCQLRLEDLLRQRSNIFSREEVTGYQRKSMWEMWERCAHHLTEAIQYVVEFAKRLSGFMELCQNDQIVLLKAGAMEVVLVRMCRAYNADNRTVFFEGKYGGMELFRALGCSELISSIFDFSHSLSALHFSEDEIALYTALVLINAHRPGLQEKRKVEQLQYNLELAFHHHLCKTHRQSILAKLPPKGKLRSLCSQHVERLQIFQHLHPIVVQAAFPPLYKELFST

RORγ = molecular target: T2, RORγ (UniProt P51449); experiment: RORγ Gal4 Reporter Gene Assay in 293T cells (firefly and renilla luciferase); type: cell-based, human
T2 sequence (P51449 1-518): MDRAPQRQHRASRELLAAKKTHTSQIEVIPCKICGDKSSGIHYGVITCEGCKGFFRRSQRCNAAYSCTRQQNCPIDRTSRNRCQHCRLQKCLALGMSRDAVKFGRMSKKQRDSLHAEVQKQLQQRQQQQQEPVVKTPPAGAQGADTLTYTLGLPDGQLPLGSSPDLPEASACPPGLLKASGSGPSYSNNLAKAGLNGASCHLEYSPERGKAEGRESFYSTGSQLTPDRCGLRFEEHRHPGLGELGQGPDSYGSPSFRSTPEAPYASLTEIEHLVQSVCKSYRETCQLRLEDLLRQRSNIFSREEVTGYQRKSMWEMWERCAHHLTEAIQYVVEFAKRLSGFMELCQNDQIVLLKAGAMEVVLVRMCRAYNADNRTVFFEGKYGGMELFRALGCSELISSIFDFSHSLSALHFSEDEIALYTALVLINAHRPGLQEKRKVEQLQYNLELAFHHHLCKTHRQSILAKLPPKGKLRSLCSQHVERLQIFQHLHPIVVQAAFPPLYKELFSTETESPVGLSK

[2] = first value of the cell FRET/FF/REN, TR-FRET activity assay, read-out: pIC50 (FRET) (converted)
[3] = second value of the cell, Gal4 reporter gene assay in 293T cells, firefly luciferase
[4] = third value of the cell, Gal4 reporter gene assay in 293T cells, renilla normalised luciferase

Compound | IC50 [1, 2] | pIC50 (FF) (RORγ; [3]) | pIC50 (REN) (RORγ; [4]) | IC50 [1] | pIC50 (FF) (RORγ) | pIC50 (REN) (RORγ)
Cc1noc2ccc(-c3cc(C(N)=O)c(C)n3CC3CCCCC3)cc12 [1/49] | 31.6 µM | 6.2 | 6.6 | – | – | –
Cc1c(C(=O)NCCN2CCOCC2)cc(-c2cc(C(C)(C)C)c3c(c2)C2(CCO3)CC2)n1CC1CCCCC1 [1/41] | – | – | – | 0.501 µM | 6.3/6.9/7.0 | 6.3/6.9/7.0
Cc1c(C(=O)N2CCC(C)(C(=O)O)CC2)cc(-c2ccc(S(=O)(=O)NC(C)(C)C)c(C(F)(F)F)c2)n1CC1CCCCC1 [17/224] | 0.794 µM | 7.1 | 7.2 | – | – | –
Cc1c(C(=O)NC2CCS(=O)(=O)CC2)cc(-c2cc(C(C)(C)O)cc(C3(C)CC3)c2)n1CC1CCCCC1 [17/321] | 1 µM | 7.3 | 7.3 | – | – | –
Cc1c(C(=O)NC2CCOCC2)cc(-c2ccc(C(=O)NC3CCCCC3)c(C(F)(F)F)c2)n1CC1CCCCC1 [6/9] | 10 µM | 6.4 | 6.2 | – | – | –
Cc1c(C(=O)NCC(C)(C)CC(=O)O)cc(-c2ccc(S(=O)(=O)NC(C)(C)C)c(C(F)(F)F)c2)n1CC1CCCCC1 [17/134] | 0.398 µM | 7.4 | 7.7 | – | – | –
COC(C)(C)CNC(=O)c1cc(-c2cc(C(C)(C)C)cc(C(C)(C)C)c2)n(CC2CCCCC2)c1C [1/35] | – | – | – | 0.126 µM | 6.9/6.9/6.9 | 6.9/6.9/6.9
Cc1c(C(=O)NC2COC2)cc(-c2cc(C(=O)NC(C)(C)C)cc(C(F)(F)F)c2)n1CC1CCCCC1 [Example 15, 5-(3-(tert-Butylcarbamoyl)-5-(trifluoromethyl)phenyl)-1-(cyclohexylmethyl)-2-methyl-N-(oxetan-3-yl)-1H-pyrrole-3-carboxamide] | – | – | – | 0.501 µM | 6.3/6.9/6.9 | 6.3/6.9/6.9
Cc1c(C(=O)NCC2(O)CCS(=O)(=O)CC2)cc(-c2cc(C(C)(C)O)cc(C3(C)CC3)c2)n1CC1CCCCC1 [17/319] | 2 µM | 6.5 | 6.6 | – | – | –
Cc1c(C(=O)NCC2CCS(=O)(=O)CC2)cc(-c2cc(C(C)(C)C)c3c(c2)C2(CCO3)CC2)n1CC1CCCCC1 [17/10] | – | – | – | 0.398 µM | 6.4/7.6/7.6 | 6.4/7.6/7.6
Cc1c(C(=O)NCC(C)(C)NC(=O)CCC(=O)O)cc(-c2cc(C(C)(C)C)c3c(c2)C2(CCO3)CC2)n1CC1CCCCC1 [17/29] | 1.26 µM | 6.8 | 6.7 | – | – | –
Cc1c(C(=O)N2CCC(C(=O)O)CC2)cc(-c2cc(C(C)(C)C)c3c(c2)C2(CCO3)CC2)n1CC1CCCCC1 [17/53] | 1.58 µM | 6.9 | 6.9 | – | – | –
Cc1c(C(N)=O)cc(-c2cc(C3CC3)cc(C(C)(C)C)c2)n1CC1CCCCC1 [Example 12, 5-(3-(tert-Butyl)-5-cyclopropylphenyl)-1-(cyclohexylmethyl)-2-methyl-1H-pyrrole-3-carboxamide] | 1 µM | 6.1 | 6.2 | – | – | –
Cc1c(C(=O)NCC(C)(C)NC(=O)CO)cc(-c2cc(C(C)(C)C)c3c(c2)C2(CCO3)CC2)n1CC1CCCCC1 [17/30] | 0.251 µM | 7.7 | 7.7 | – | – | –
Cc1c(C(=O)NC2CCOCC2)cc(-c2ccc(S(=O)(=O)NC(C)(C)C)c(C(F)(F)F)c2)n1CC1CCCC1 [17/214] | 0.251 µM | 7.5 | 7.5 | – | – | –
